ChEMBL document CHEMBL1157031, “A novel copper complex of salicylaldehyde pyrazole hydrazone induces apoptosis through up-regulating integrin beta4 in H322 lung carcinoma cells” (Eur J Med Chem, 2010)
The source made the active and inactive calls. The rule behind the calls is not given here.

Experiments:
HUVEC = assay: Cytotoxicity against HUVEC cells after 48 hrs by MTT assay; type: cell-based; details: Homo sapiens
NCI-H322 = assay: Induction of apoptosis in human NCI-H322 cells at 10 uM by Hoechst 33258 staining in presence of CuCl2; type: functional, cell-based
[1] = Cytotoxicity against human NCI-H322 cells after 48 hrs by MTT assay; type: functional, cell-based; details: NCI-H322, 48 h
NCI-H1299 = assay: Cytotoxicity against human NCI-H1299 cells after 48 hrs by MTT assay; type: functional, cell-based; details: NCI-H1299, 48 h

CC(C)(C)c1ccc(Cn2nc(-c3ccccc3)cc2C(=O)N/N=C/c2ccccc2O)cc1
IC50 (HUVEC): 2230 nM
Activity (NCI-H322): Active
IC50 [1]: 4.75 µM
IC50 (NCI-H1299): 5.78 µM
